Values belong to the compound of their own block, whether it stands above or below them.
Assays:
[1] = Physical stability test of aqueous metronidazole compositions (crystal formation or precipitation); type: physicochemical; settings: for Results from stability test: 24 h room temperature then 7 days at about 4 °C
Description: The solubility enhancing effect of the combination of niacinamide and urea in increasing the solubility of metronidazole in the aqueous compositions is evaluated by physical stability of the prepared compositions.
Therefore, the formulations are subject to a physical stability test. The protocol for the stability test is as follows: metronidazole and the solubility enhancing agents are combined with water either at room temperature or elevated temperature while stirring until dissolved. The solutions are permitted to cool to room temperature. Customary auxiliaries and additives may be added to the aqueous solutions containing solubilized metronidazole and solubility enhancing agents. The solutions may be gelled by using the suitable gelling agents. The compositions both in gel or solution form are then packaged in clear glass vials and sealed. The vials are kept at room temperature for 24 hours and monitored for crystal formation or precipitation. After 24 hours, the vials are placed in a refrigerator maintained at a temperature of about 4° C. for 7 days. After 7 days, the vials are removed from the refrigerator. Evidence of crystal formation or precipitation is examined.
(§1) Each formulation was prepared by combining niacinamide and metronidazole in water (q.s 100%). The mixture was kept at a temperature of about 45° C. while stirring until dissolved. The solutions were permitted to cool to room temperature, packaged and sealed in glass vials. The stability tests described in Example 1 were performed and the test results were recorded.
as §1, with “urea” for “niacinamide”
as §1, with “urea, niacinamide,” for “niacinamide”, “kept either at room temperature or” for “kept”

[2] = at 25 °C; cited from earlier work

- Results from stability test ([1]; 1.0% metronidazole + 1.0% urea + 3.0% niacinamide in water): Crystals
- Results from stability test ([1]; 1.0% metronidazole + 1.0% urea + 4.0% niacinamide in water): Clear
- Results from stability test ([1]; 1.0% metronidazole + 2% niacinamide in water): Crystals formed
- Results from stability test ([1]; 1.0% metronidazole + 3% niacinamide in water): Crystals formed
- Results from stability test ([1]; 1.0% metronidazole + 3.0% urea + 3.0% niacinamide in water): Clear
- Results from stability test ([1]; 1.0% metronidazole + 4% niacinamide in water): Crystals formed
- Results from stability test ([1]; 1.0% metronidazole + 4.0% urea + 1.0% niacinamide in water): Crystals
- Results from stability test ([1]; 1.0% metronidazole + 5% niacinamide in water): Clear
- Results from stability test ([1]; 1.0% metronidazole + 5.0% urea + 1.0% niacinamide in water): Clear
- Results from stability test ([1]; 1.0% metronidazole + 5.0% urea + 1.0% niacinamide in water, listed as metronidazole): stable
- Results from stability test ([1]; 1.0% metronidazole + 5.0% urea + 2.0% niacinamide in water): Clear
- Results from stability test ([1]; 1.0% metronidazole + 7% urea in water): Crystals formed
- Results from stability test ([1]; 1.0% metronidazole + 7% urea in water, listed as metronidazole): not sufficient to solubilize
- Results from stability test ([1]; 1.0% metronidazole + 8% urea in water): Crystals formed
- Results from stability test ([1]; 1.0% metronidazole + 9% urea in water): Crystals formed
- Results from stability test ([1]; 1.0% metronidazole + 10% urea in water): Clear
- Results from stability test ([1]; 1.2% metronidazole + 10.0% urea + 2.0% niacinamide in water): Clear
- Results from stability test ([1]; 1.5% metronidazole + 15.0% urea + 4.0% niacinamide in water): Clear
Structure (SMILES): Cc1ncc([N+](=O)[O-])n1CCO [Metronidazole, 1-(2-hydroxyethyl)-2-methyl-5-nitroimidazole]

- Concentration of urea needed to obtain a stable aqueous solution of 1.0% metronidazole ([1]; concentration of niacinamide is 1.0%): ≥ 5.0%
- Concentration of urea required to obtain a stable aqueous solution of 1.0% metronidazole ([1]; urea as the only solubility enhancing agent): about 10%
Structure (SMILES): NC(N)=O [urea]
- Water solubility limit [2]: about 50 % by weight

- Concentration of niacinamide needed to obtain a stable aqueous solution of 1.0% metronidazole ([1]; concentration of urea is 1.0%): about 4.0%
- Urea concentration functionally equivalent to 1% niacinamide in inducing the solubility enhancing effect ([1]; from Examples 2 and 3, 1.0% metronidazole): about 2%
- Concentration of niacinamide required to obtain a stable aqueous solution of 1.0% metronidazole ([1]; niacinamide as the only solubility enhancing agent): about 5%
Structure (SMILES): NC(=O)c1cccnc1 [niacinamide]
- Water solubility limit [2]: about 50 % by weight
